Patent publication US20210100245A1, “SYNERGISTIC FORMULATIONS FOR CONTROL AND REPELLENCY OF BITING ARTHROPODS” (BEDOUKIAN RESEARCH, INC., priority 2019, published 2021)

System: Adult female Aedes aegypti
Assay: Membrane feeder repellency test: mosquitoes probing treated collagen membranes over blood-filled wells
Format: in vivo
Settings: for Test results, percentage relative to 0.3 wt % DEET in the same test: total repellent 0.30%, relative to 0.3 wt % DEET (=100%); for Test results (quantity not named; percentage from mosquito probing counts): 6.25 μl on collagen membrane, probes counted every 2 min for 20 min
Experimental: Adult female Aedes aegypti were obtained from the i2LResearch USA, Inc. colony. Two hundred fifty (250) mosquitoes were used per replicate (seven replicates). Mosquitoes were at least 6 days old and had been deprived of sucrose solution for at least 18 hours prior to testing.
An exposure container was used to present the mosquitoes with a choice of blood-filled wells that were covered with collagen membranes (3 cm in diameter). The collagen membranes were treated by pipetting 6.25 μI of the test treatment onto the appropriate membrane and spreading it evenly with the tip of the pipette.
Exposure container. A 30.5 cm×30.5 cm×30.5 cm container (rigid plastic frame and a sleeved entry on one side and a sliding trap door on the bottom). The container was supported by four (4 cm high) legs.
Membrane feeder. Five wells (3 cm in diameter×8 mm in depth) in line on a hollow plastic block (6 cm wide×22 cm long×3 cm deep). The plastic block fit into the bottom of the exposure container. Hoses mounted on either end of the membrane feeder carried warm water that was pumped from a water bath. The sliding plastic trap door in the bottom of the exposure container covered and uncovered the wells in the membrane feeder, allowing mosquitoes to access the blood-filled wells that were covered with treated collagen membranes.
Study set-up. The membrane feeder was connected to a heated water bath, and warm water passed through the feeder via a circulating pump so that the wells were warmed to 96-100° F. Seventy-two (72) mg of ATP (disodium salt) were added to 26 ml of bovine blood. Sodium citrate was also added to the blood during collection to prevent clotting. The blood was poured into the wells until it completely filled each well (meniscus slightly above the level of the well).
Circular pieces (3 cm in diameter) of collagen membrane were placed over each of the wells. Care was taken to eliminate all air bubbles from between the membrane and the surface of the blood. Once wells were prepared, the blood was allowed to warm until the membrane temperature reached […]. Temperature was confirmed using a surface thermometer.
Treatment and exposure to mosquitoes. Once the collagen membranes were placed over the blood-filled wells, they were treated as described above. The membranes were allowed to dry for five minutes. Then the exposure container was placed on the membrane feeder. The trap door in the floor of the container was slid back, exposing the mosquitoes to the membranes. The number of mosquitoes probing the membrane covering each well was recorded every two minutes for twenty minutes. If a minimum of 20 total control probes were not achieved in a replicate, the replicate was repeated.
The above procedures were repeated until seven acceptable replicates were completed. […]

Compound | Test results, percentage relative to 0.3 wt % DEET in the same test [%] | Test results (quantity not named; percentage from mosquito probing counts) (concentration 0.15%) [%] | Test results (quantity not named; percentage from mosquito probing counts) (concentration 0.30%) [%]
CCNC(=O)C1CC(C)CCC1C(C)C (stereo not shown) [WS3, N-ethyl-p-menthane-3-carboxamide] | 130.0 |  | 
CC1CCC(C(C)C)C(OCC(O)CO)C1 (stereo not shown) [Coolact 10, menthoxypropane-1,2-diol] |  | 45.4 | 41.5
CCN(CC)C(=O)c1cccc(C)c1 [DEET, N,N-diethyl-m-toluamide, reference compound] | 100.0 |  | 
